From patent US11331328B2, “Compositions and methods for inhibiting antiapoptotic Bcl-2 proteins as anti-aging agents” (priority 2014, dated 2022)

Test system: senescent WI38 cells induced by expression of oncogenic Ras (Ras-SC)
Assay: Cell viability, LD50 in oncogenic Ras-induced senescent WI-38 cells
Assay type: cell-based, human
Settings: Table 2
Method: Human WI-38 fibroblasts (WI38 cells, #CCL-75™), human IMR-90 fibroblasts (IMR90 cells, #CCL-186™), human renal epithelial cells (REC cells, #PCS-400-012™) were obtained from ACTT (Manassas, Va., USA). Mouse embryonic fibroblasts (MEF) were isolated from mouse embryos as described^1. All cells were cultured in a complete medium (CM) (Dulbecco's Modified Eagle Medium supplemented with 10% fetal bovine serum [FBS], 100 U/ml penicillin, and 100 μg/ml streptomycin [all from Atlanta Biologicals, Norcross, Ga., and USA]) in a humidified incubator at 37° C. and 5% CO2. Low passages of WI-38 cells (<25), IMR-90 (<25), REC cells (<25) and MEF (<3) were used as non-senescent controls or for induction of senescence to avoid replicative senescence. To induce replicative senescence, WI-38 cells were subcultivated until cell division ceased after about 38 passages or 60 population doublings (FIG. 5)^2. […]
Flow cytometry: Non-senescent and senescent cells were seeded into wells of 24- or 48-well at about 70% of confluence. […] Viable cells (PI^− cells) were numerated by flow cytometry at a constant flow rate and calculated as a percentage of control cells treated with vehicle using the formula: percentage of control=(Ndrug/NC)×100, where Ndrug and NC represent the absolute number of PI^− viable cells of drug-treated and vehicle-treated cells, respectively. […]

With CC1(C)CCC(c2ccc(Cl)cc2)=C(CN2CCN(c3ccc(C(=O)NS(=O)(=O)c4ccc(N[C@H](CCN5CCOCC5)CSc5ccccc5)c(S(=O)(=O)C(F)(F)F)c4)cc3)CC2)C1 [ABT263, navitoclax] the “LD50” value was 0.62 µM.
